Data on 18 molecules can be found in ChEMBL document CHEMBL1151997, “Structural analogues of the michellamine anti-HIV agents. Importance of the tetrahydroisoquinoline rings for biological activity” (Bioorg Med Chem Lett, 1997).

The subject of test [1] is Human immunodeficiency virus 1. Put plainly: In vitro anti-HIV-1 activity in CEM-SS cytoprotection assay; No activity. It is filed as functional, organism-based.
For a further test, the system named is CEM-SS. Put plainly: In vitro cytotoxicity in CEM-SS cell line up to a concentration of 100 uM. Format: functional, cell-based. The note with it: Homo sapiens.

For the molecule `COc1cccc2c(-c3ccccc3)cc(-c3cc(-c4ccccc4)c4cccc(OC)c4c3O)c(O)c12`, the EC50 result in test [1] is given as “Not Active”. Further, the IC50 – broadly, the midpoint of a concentration-inhibition curve – in the test on CEM-SS was above 100 µM.
The corresponding values for `COc1cc(C)cc2c(-c3ccc4c(c3)OCO4)cc(-c3cc(-c4ccc5c(c4)OCO5)c4cc(C)cc(OC)c4c3O)c(O)c12` are “Not Active” and above 100 µM.
With `COc1cc(OC)c2c(O)c(-c3cc(-c4ccc(O)cc4O)c4cc(OC)cc(OC)c4c3O)cc(-c3ccc(O)cc3O)c2c1`, the EC50 entry in test [1] was “Not Active”. The same molecule gave an IC50 in the test with CEM-SS of 3.9 µM.
Turning to `COc1cccc2c(-c3ccc(O)cc3O)cc(-c3cc(-c4ccc(O)cc4O)c4cccc(OC)c4c3O)c(O)c12`, the EC50 result in test [1] was “Not Active”. Also, 2.2 µM corresponded to half-maximal inhibition in the test on CEM-SS (IC50).
The corresponding values for `COc1cc(OC)c2c(O)c(-c3cc(-c4ccc5c(c4)OCO5)c4cc(OC)cc(OC)c4c3O)cc(-c3ccc4c(c3)OCO4)c2c1` are “Not Active” and above 100 µM.
The corresponding values for `COc1cccc2c(-c3cccc(N)c3)cc(-c3cc(-c4cccc(N)c4)c4cccc(OC)c4c3O)c(O)c12` are “Not Active” and above 100 µM.
The like results for `COc1cc(OC)c2c(O)c(-c3cc(-c4cccc([N+](=O)[O-])c4)c4cc(OC)cc(OC)c4c3O)cc(-c3cccc([N+](=O)[O-])c3)c2c1` were, in that order, “Not Active” and above 100 µM.
Take `COc1cc(OC)c2c(O)c(-c3cc(-c4cccc(N)c4)c4cc(OC)cc(OC)c4c3O)cc(-c3cccc(N)c3)c2c1`: the EC50 entry in test [1] is recorded as “Not Active”. This molecule also had a concentration for half-maximal inhibition (IC50) in the test on CEM-SS above 100 µM.
The corresponding values for `COc1cccc2c(-c3cccc([N+](=O)[O-])c3)cc(-c3cc(-c4cccc([N+](=O)[O-])c4)c4cccc(OC)c4c3O)c(O)c12` are “Not Active” and above 100 µM.
With `COc1cc(C)cc2c(-c3cccs3)cc(-c3cc(-c4cccs4)c4cc(C)cc(OC)c4c3O)c(O)c12`, in test [1], the EC50 result is recorded as “Not Active”. The molecule further gave an IC50 with CEM-SS above 100 µM.
Turning to `COc1cc(C)cc2c(-c3ccc(O)cc3O)cc(-c3cc(-c4ccc(O)cc4O)c4cc(C)cc(OC)c4c3O)c(O)c12`, the EC50 entry in test [1] is “Not Active”. In the test on CEM-SS, this molecule gave an IC50 of 2.6 µM.
The corresponding values for `COc1cccc2c(-c3ccc4c(c3)OCO4)cc(-c3cc(-c4ccc5c(c4)OCO5)c4cccc(OC)c4c3O)c(O)c12` are “Not Active” and above 100 µM.
The like results for `COc1cccc2c(-c3cccs3)cc(-c3cc(-c4cccs4)c4cccc(OC)c4c3O)c(O)c12` were, in that order, “Not Active” and above 100 µM.
The corresponding values for `COc1cc(C)cc2c(-c3cccc([N+](=O)[O-])c3)cc(-c3cc(-c4cccc([N+](=O)[O-])c4)c4cc(C)cc(OC)c4c3O)c(O)c12` are “Not Active” and above 100 µM.
Consider `COc1cc(OC)c2c(O)c(-c3cc(-c4ccccc4)c4cc(OC)cc(OC)c4c3O)cc(-c3ccccc3)c2c1`, for which, in test [1], the EC50 result is given as “Not Active”. This molecule came in with an IC50 in the test on CEM-SS above 100 µM.
The like results for `COc1cc(C)cc2c(-c3cccc(N)c3)cc(-c3cc(-c4cccc(N)c4)c4cc(C)cc(OC)c4c3O)c(O)c12` were, in that order, “Not Active” and above 100 µM.
For the molecule `COc1cc(OC)c2c(O)c(-c3cc(-c4cccs4)c4cc(OC)cc(OC)c4c3O)cc(-c3cccs3)c2c1`, in test [1], the EC50 result is “Not Active”. In the test on CEM-SS, the half-inhibitory concentration (IC50) was above 100 µM.
On to `COc1cc(C)cc2c(-c3ccccc3)cc(-c3cc(-c4ccccc4)c4cc(C)cc(OC)c4c3O)c(O)c12`, for which the EC50 result in test [1] is reported as “Not Active”. This molecule displayed an IC50 in the test on CEM-SS above 100 µM.
